Reference: US12540131B2 (Merck Sharp & Dohme LLC, priority 2019, dated 2026)

Biological target: GST tagged truncated human mutant G2019S LRRK2 (Homo sapiens (Human), UniProt Q5S007, G2019S)
Assay: LRRK2 Km ATP LanthaScreen Assay
Format: biochemical
Details: G2019S LRRK2, 134 μM ATP (Km ATP), mean values
Procedure, shortened: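 Enzyme (GST-tagged, truncated) was preincubated with compound for 15 min at RT in 50 mM Tris pH 8.5, 10 mM MgCl2, 0.01% Brij-35, 1 mM EGTA, 2 mM DTT and 0.05 mM orthovanadate. Fluorescein-LRRKtide and 134 μM ATP (Km) were then added for 90 min. EDTA and Tb-anti-pERM antibody stopped the reaction; the TR-FRET 520/495 ratio gave 4-parameter IC50s, reported as mean pIC50.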

Chain of GST tagged truncated human mutant G2019S LRRK2 (Q5S007 970-2527 G2019S): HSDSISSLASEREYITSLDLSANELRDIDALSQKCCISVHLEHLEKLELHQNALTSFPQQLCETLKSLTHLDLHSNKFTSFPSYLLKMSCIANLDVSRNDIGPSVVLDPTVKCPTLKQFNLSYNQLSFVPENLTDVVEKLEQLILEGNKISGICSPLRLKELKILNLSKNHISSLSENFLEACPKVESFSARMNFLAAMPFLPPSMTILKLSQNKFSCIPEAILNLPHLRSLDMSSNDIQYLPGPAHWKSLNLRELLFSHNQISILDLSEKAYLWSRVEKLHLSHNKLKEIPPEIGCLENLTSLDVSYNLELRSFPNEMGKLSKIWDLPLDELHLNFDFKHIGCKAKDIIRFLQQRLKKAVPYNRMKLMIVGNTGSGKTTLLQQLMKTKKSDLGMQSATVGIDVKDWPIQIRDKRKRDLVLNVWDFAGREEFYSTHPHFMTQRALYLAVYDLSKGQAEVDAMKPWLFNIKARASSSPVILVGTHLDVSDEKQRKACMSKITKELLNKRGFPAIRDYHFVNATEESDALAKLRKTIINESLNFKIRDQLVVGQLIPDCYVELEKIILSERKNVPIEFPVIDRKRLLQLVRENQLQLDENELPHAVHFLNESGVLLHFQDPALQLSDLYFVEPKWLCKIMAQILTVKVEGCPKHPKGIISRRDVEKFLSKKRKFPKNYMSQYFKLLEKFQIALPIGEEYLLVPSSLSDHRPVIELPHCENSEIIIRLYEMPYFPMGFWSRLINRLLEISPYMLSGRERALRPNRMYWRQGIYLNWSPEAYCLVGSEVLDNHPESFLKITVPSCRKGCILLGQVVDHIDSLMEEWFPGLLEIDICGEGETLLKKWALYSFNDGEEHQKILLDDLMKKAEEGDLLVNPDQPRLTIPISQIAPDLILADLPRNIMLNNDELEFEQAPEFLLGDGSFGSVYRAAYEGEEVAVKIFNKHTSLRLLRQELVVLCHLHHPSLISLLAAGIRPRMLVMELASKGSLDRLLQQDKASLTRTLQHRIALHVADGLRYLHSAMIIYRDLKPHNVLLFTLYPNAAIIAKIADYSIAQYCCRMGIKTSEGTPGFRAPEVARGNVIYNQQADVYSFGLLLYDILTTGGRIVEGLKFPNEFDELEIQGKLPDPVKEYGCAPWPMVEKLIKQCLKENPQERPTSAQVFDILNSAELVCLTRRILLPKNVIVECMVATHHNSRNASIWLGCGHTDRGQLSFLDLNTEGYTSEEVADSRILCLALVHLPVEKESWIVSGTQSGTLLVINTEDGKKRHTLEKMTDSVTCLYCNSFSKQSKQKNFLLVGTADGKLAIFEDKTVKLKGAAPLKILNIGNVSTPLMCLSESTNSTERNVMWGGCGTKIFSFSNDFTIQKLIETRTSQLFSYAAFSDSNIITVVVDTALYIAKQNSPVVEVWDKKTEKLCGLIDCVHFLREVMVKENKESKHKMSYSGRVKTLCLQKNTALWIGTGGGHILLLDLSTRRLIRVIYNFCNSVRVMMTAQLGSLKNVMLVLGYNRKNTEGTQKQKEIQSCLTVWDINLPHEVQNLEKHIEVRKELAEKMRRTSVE

Compound	LRRK2 pIC50	IC50 (read-out: LRRK2 pIC50 (converted)) [nM]
Cc1c(Nc2ncc3cc(Cl)c(C4CCN(C[C@H](O)c5ccccc5F)CC4)cc3n2)cnn1C1CC1 [Ex-4.203, (1R)-2-(4-{6-chloro-2-[(1-cyclopropyl-5-methyl-1H-pyrazol-4-yl)amino]quinazolin-7-yl}piperidin-1-yl)-1-(2-fluorophenyl)ethan-1-ol]	8.03	–
Cc1c(Nc2ncc3cc(Cl)c(C4CCN(C[C@H](O)c5cc(F)ccc5F)CC4)cc3n2)cnn1C1CC1 [Ex-4.204, (1R)-2-(4-{6-chloro-2-[(1-cyclopropyl-5-methyl-1H-pyrazol-4-yl)amino]quinazolin-7-yl}piperidin-1-yl)-1-(2,5-difluorophenyl)ethan-1-ol]	7.67	–
Cc1c(Nc2ncc3cc(Cl)c(C4CCN(C[C@@H](O)c5cc(F)ccc5F)CC4)cc3n2)cnn1C1CC1 [Ex-4.205, (1S)-2-(4-{6-chloro-2-[(1-cyclopropyl-5-methyl-1H-pyrazol-4-yl)amino]quinazolin-7-yl}piperidin-1-yl)-1-(2,5-difluorophenyl)ethan-1-ol]	8.40	–
Cc1c(Nc2ncc3cc(Cl)c(C4CCN(C[C@H](O)c5cccc(F)c5F)CC4)cc3n2)cnn1C1CC1 [Ex-4.206, (1R)-2-(4-{6-chloro-2-[(1-cyclopropyl-5-methyl-1H-pyrazol-4-yl)amino]quinazolin-7-yl}piperidin-1-yl)-1-(2,3-difluorophenyl)ethan-1-ol]	7.90	–
Cc1c(Nc2ncc3cc(Cl)c(C4CCN(C[C@@H](O)c5cccc(F)c5F)CC4)cc3n2)cnn1C1CC1 [Ex-4.207, (1S)-2-(4-{6-chloro-2-[(1-cyclopropyl-5-methyl-1H-pyrazol-4-yl)amino]quinazolin-7-yl}piperidin-1-yl)-1-(2,3-difluorophenyl)ethan-1-ol]	8.31	–
Cc1c(Nc2ncc3cc(Cl)c(C4CCN(C[C@H](O)c5c(F)cccc5F)CC4)cc3n2)cnn1C1CC1 [Ex-4.208, (1R)-2-(4-{6-chloro-2-[(1-cyclopropyl-5-methyl-1H-pyrazol-4-yl)amino]quinazolin-7-yl}piperidin-1-yl)-1-(2,6-difluorophenyl)ethan-1-ol]	7.96	–
Cc1c(Nc2ncc3cc(Cl)c(C4CCN(C[C@@H](O)c5c(F)cccc5F)CC4)cc3n2)cnn1C1CC1 [Ex-4.209, (1S)-2-(4-{6-chloro-2-[(1-cyclopropyl-5-methyl-1H-pyrazol-4-yl)amino]quinazolin-7-yl}piperidin-1-yl)-1-(2,6-difluorophenyl)ethan-1-ol]	8.16	–
Cc1c(Nc2ncc3cc(Cl)c(C4CCN(CC5(O)CCOCC5)CC4)cc3n2)cnn1C1CC1 [Ex-4.210, 4-[(4-{6-chloro-2-[(1-cyclopropyl-5-methyl-1H-pyrazol-4-yl)amino]quinazolin-7-yl}piperidin-1-yl)methyl]oxan-4-ol]	8.55	–
COC[C@H](O)CN1CCC(c2cc3nc(Nc4cnn(C5CC5)c4C)ncc3cc2Cl)CC1 [Ex-4.211, (2R)-1-(4-{6-chloro-2-[(1-cyclopropyl-5-methyl-1H-pyrazol-4-yl)amino]quinazolin-7-yl}piperidin-1-yl)-3-methoxypropan-2-ol]	9.15	–
COC[C@@H](O)CN1CCC(c2cc3nc(Nc4cnn(C5CC5)c4C)ncc3cc2Cl)CC1 [Ex-4.212, (2S)-1-(4-{6-chloro-2-[(1-cyclopropyl-5-methyl-1H-pyrazol-4-yl)amino]quinazolin-7-yl}piperidin-1-yl)-3-methoxypropan-2-ol]	8.75	–
Cc1c(Nc2ncc3cc(Cl)c(C4CCN(C[C@H](O)c5ccc(F)cc5)CC4)cc3n2)cnn1C1CC1 [Ex-4.213, (1R)-2-(4-{6-chloro-2-[(1-cyclopropyl-5-methyl-1H-pyrazol-4-yl)amino]quinazolin-7-yl}piperidin-1-yl)-1-(4-fluorophenyl)ethan-1-ol]	8.50	–
Cc1c(Nc2ncc3cc(Cl)c(C4CCN(C[C@@H](O)c5ccc(F)cc5)CC4)cc3n2)cnn1C1CC1 [Ex-4.214, (1S)-2-(4-{6-chloro-2-[(1-cyclopropyl-5-methyl-1H-pyrazol-4-yl)amino]quinazolin-7-yl}piperidin-1-yl)-1-(4-fluorophenyl)ethan-1-ol]	8.62	–
Cc1c(Nc2ncc3cc(Cl)c(C4CCN(CC5(O)CCC5)CC4)cc3n2)cnn1C1CC1 [Ex-4.215, 1-[(4-{6-chloro-2-[(1-cyclopropyl-5-methyl-1H-pyrazol-4-yl)amino]quinazolin-7-yl}piperidin-1-yl)methyl]cyclobutan-1-ol]	8.57	–
Cc1c(Nc2ncc3cc(Cl)c(C4CCN(C[C@H](O)CN5CCCC5=O)CC4)cc3n2)cnn1C1CC1 [Ex-4.216, 1-[(2S)-3-(4-{6-chloro-2-[(1-cyclopropyl-5-methyl-1H-pyrazol-4-yl)amino]quinazolin-7-yl}piperidin-1-yl)-2-hydroxypropyl]pyrrolidin-2-one]	9.05	–
Cc1c(Nc2ncc3cc(Cl)c(C4CCN(CC(C)(C)O)CC4)cc3n2)cnn1C1CC1 [Ex-4.217, 1-(4-{6-chloro-2-[(1-cyclopropyl-5-methyl-1H-pyrazol-4-yl)amino]quinazolin-7-yl}piperidin-1-yl)-2-methylpropan-2-ol]	8.57	–
Cc1c(Nc2ncc3cc(Cl)c(C4CCN(C[C@]5(O)C[C@H](C#N)C5)CC4)cc3n2)cnn1C1CC1 [Ex-4.229, trans-3-[(4-{6-chloro-2-[(1-cyclopropyl-5-methyl-1H-pyrazol-4-yl)amino]quinazolin-7-yl}piperidin-1-yl)methyl]-3-hydroxycyclobutane-1-carbonitrile]	8.95	–

Compound	LRRK2 pIC50	IC50 (read-out: LRRK2 pIC50 (converted)) [nM]
Cc1cc2cnc(Nc3cnn(C4(C)CC4)c3C)nc2cc1C1CCN(CCC#N)CC1 [Ex-5.1, 3-(4-(6-methyl-2-((5-methyl-1-(1-methylcyclopropyl)-1H-pyrazol4-yl)amino)quinazolin-7-yl)piperidin-1-yl)propanenitrile]	–	< 0.631
Cc1cc2cnc(Nc3cnn(C4(C)CC4)c3Cl)nc2cc1C1CCN(CCC#N)CC1 [Ex-5.2, 3-(4-(2-((5-chloro-1-(1-methylcyclopropyl)-1H-pyrazol-4-yl)amino)-6-methylquinazolin-7-yl)piperidin-1-yl)propanenitrile]	>9.20	–
Cc1cc2cnc(Nc3cnn(C45CC(C4)C5)c3C)nc2cc1C1CCN(C2(C)COC2)CC1 [Ex-5.8, N-[1-(bicyclo[1.1.1]pentan-1-yl)-5-methyl-1H-pyrazol-4-yl]-6-methyl-7-[1-(3-methyloxetan-3-yl)piperidin-4-yl]quinazolin-2-amine]	>9.20	–
N#Cc1cc2cnc(Nc3cnn(C4CC4)c3Cl)nc2cc1C1CCN(C2COC2)CC1 [Ex-6.3, 2-((5-chloro-1-cyclopropyl-1H-pyrazol-4-yl)amino)-7-(1-(oxetan-3-yl)piperidin-4-yl)quinazoline-6-carbonitrile]	9.07	–
FC1COCC1N1CC[C@@H](c2cc3nc(Nc4cnn(C5CC5(F)F)c4Cl)ncc3cc2Cl)C(F)C1 (stereo partly shown) [Ex-7.1]	9.01	–
FC1COCC1N1CC[C@H](c2cc3nc(Nc4cnn(C5CC5(F)F)c4Cl)ncc3cc2Cl)C(F)C1 (stereo partly shown) [Ex-7.2]	>9.20	–
FC(F)(F)Cn1ncc(Nc2ncc3cc(Cl)c(C4CCN(C5COC5)CC4)cc3n2)c1Cl [Ex-8.1, 6-chloro-N-(5-chloro-1-(2,2,2-trifluoroethyl)-1H-pyrazol-4-yl)-7-(1-(oxetan-3-yl)piperidin-4-yl)quinazolin-2-amine]	>9.20	–
FC(F)n1ncc(Nc2ncc3cc(Cl)c(C4CCN(C5COC5)CC4)cc3n2)c1Cl [Ex-8.2, 6-chloro-N-[5-chloro-1-(difluoromethyl)-1H-pyrazol-4-yl]-7-[1-(oxetan-3-yl)piperidin-4-yl]quinazolin-2-amine]	8.83	–
Cc1nsc(Nc2ncc3cc(Cl)c(C4CCN(C5COC5)CC4)cc3n2)c1Cl [Ex-8.5, 6-chloro-N-(4-chloro-3-methyl-1,2-thiazol-5-yl)-7-[1-(oxetan-3-yl)piperidin-4-yl]quinazolin-2-amine]	>9.20	–
N#CCCN1CCC(c2cc3nc(Nc4cnn(C5CC5)c4Cl)ncc3cc2Cl)CC1 [Ex-8.6, 3-(4-{6-chloro-2-[(5-chloro-1-cyclopropyl-1H-pyrazol-4-yl)amino]quinazolin-7-yl}piperidin-1-yl)propanenitrile]	8.17	–
O=S1(=O)CC(N2CCC(c3cc4nc(Nc5cnn(C6CC6)c5Cl)ncc4cc3Cl)CC2)C1 [Ex-8.7, 3-(4-(6-chloro-2-((5-chloro-1-cyclopropyl-1H-pyrazol-4-yl)amino)quinazolin-7-yl)piperidin-1-yl)thietane 1,1-dioxide]	>9.20	–
Clc1cc2cnc(Nc3cnn(C4CC4)c3Cl)nc2cc1C1CCN(C2COC2)CC1 [Ex-8.8, 6-chloro-N-(5-chloro-1-cyclopropyl-1H-pyrazol-4-yl)-7-[1-(oxetan-3-yl)piperidin-4-yl]quinazolin-2-amine]	>9.20	–
CC1(n2ncc(Nc3ncc4cc(Cl)c(C5CCNCC5)cc4n3)c2Cl)CC1 [Ex-8.9, 6-chloro-N-[5-chloro-1-(1-methylcyclopropyl)-1H-pyrazol-4-yl]-7-(piperidin-4-yl)quinazolin-2-amine]	>9.20	–
CC1(N2CCC(c3cc4nc(Nc5cnn(C6CC6)c5Cl)ncc4cc3Cl)CC2)COC1 [Ex-8.10, 6-chloro-N-(5-chloro-1-cyclopropyl-1H-pyrazol-4-yl)-7-[1-(3-methyloxetan-3-yl)piperidin-4-yl]quinazolin-2-amine]	9.08	–
CN1CCC(c2cc3nc(Nc4cnn(C(C)(C)CO)c4Cl)ncc3cc2Cl)CC1 [Ex-8.11, 2-(5-chloro-4-{[6-chloro-7-(1-methylpiperidin-4-yl)quinazolin-2-yl]amino}-1H-pyrazol-1-yl)-2-methylpropan-1-ol]	8.91	–
